Experiment in all cases: KINOMEscan (ScanMAX) kinase profiling
Type in all cases: binding

Experiment [1] deals with T1, panel of 468 kinases (Homo sapiens, UniProt P29597).
T1 construct: purchased KINOMEscan (ScanMAX) service
The conditions noted are these: 1 μM, read-out: % control.

Experiment [2] has as its target T2, panel of 468 kinases (Homo sapiens, UniProt P36888, D835V).
T2 construct: purchased KINOMEscan (ScanMAX) service
T2 sequence (P36888 27-993 D835V): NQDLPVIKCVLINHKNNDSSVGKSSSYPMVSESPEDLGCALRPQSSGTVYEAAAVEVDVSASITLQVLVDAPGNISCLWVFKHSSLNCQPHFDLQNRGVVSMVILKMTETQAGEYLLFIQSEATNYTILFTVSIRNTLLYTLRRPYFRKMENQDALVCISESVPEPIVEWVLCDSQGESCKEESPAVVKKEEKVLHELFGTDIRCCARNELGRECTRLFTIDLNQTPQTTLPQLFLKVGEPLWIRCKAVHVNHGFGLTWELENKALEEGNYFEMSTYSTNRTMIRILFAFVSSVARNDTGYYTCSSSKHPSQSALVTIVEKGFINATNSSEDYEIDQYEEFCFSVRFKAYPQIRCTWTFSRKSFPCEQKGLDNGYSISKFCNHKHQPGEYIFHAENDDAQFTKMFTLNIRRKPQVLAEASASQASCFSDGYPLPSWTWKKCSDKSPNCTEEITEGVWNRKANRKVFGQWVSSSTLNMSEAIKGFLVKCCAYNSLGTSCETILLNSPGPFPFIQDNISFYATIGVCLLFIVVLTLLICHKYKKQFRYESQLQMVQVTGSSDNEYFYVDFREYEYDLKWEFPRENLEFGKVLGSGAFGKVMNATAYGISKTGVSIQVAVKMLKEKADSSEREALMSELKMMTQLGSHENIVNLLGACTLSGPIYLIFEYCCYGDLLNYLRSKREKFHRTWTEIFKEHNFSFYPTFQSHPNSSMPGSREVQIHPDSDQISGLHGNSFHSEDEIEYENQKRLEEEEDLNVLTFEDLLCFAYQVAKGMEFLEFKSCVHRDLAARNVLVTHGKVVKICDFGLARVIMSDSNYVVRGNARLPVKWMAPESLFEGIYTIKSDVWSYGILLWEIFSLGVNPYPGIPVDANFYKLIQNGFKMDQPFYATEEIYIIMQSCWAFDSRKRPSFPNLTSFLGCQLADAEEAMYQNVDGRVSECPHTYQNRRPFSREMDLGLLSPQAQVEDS
As to conditions: FLT3(D835V); 1 μM; read-out: % control.

In experiment [3] the target is T3, panel of 468 kinases (Homo sapiens, UniProt P49841).
T3 construct: purchased KINOMEscan (ScanMAX) service
T3 sequence (P49841 whole entry): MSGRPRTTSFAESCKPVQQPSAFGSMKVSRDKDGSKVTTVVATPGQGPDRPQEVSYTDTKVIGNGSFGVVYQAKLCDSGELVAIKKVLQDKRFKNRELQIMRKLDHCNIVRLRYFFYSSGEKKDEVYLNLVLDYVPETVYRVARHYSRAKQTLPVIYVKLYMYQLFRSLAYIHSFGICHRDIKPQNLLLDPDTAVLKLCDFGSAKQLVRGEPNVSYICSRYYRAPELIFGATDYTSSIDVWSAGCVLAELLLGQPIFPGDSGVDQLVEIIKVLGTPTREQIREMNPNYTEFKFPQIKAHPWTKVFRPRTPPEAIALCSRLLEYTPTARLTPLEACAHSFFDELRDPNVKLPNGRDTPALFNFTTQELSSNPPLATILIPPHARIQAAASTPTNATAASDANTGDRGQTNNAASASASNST
As to conditions: GSK3B; 1 μM; read-out: % control.

The target in experiment [4] is T4, panel of 468 kinases (Homo sapiens, UniProt Q07002).
T4 construct: purchased KINOMEscan (ScanMAX) service
T4 sequence (Q07002 whole entry): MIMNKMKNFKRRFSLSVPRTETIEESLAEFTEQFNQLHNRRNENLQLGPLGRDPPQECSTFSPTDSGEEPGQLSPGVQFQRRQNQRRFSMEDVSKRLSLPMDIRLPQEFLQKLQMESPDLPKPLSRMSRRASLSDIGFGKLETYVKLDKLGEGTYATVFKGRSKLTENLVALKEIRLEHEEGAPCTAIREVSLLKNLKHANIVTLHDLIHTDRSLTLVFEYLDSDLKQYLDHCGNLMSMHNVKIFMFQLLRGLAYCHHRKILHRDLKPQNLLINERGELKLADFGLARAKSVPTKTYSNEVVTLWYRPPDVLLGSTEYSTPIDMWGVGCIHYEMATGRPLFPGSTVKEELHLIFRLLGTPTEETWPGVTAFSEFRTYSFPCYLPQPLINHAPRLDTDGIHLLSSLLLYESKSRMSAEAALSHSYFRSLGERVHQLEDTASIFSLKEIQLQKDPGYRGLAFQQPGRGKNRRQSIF
As to conditions: PCTK3; 1 μM; read-out: % control.

The target of experiment [5] is T5, panel of 468 kinases (Homo sapiens, UniProt Q15746).
T5 construct: purchased KINOMEscan (ScanMAX) service
T5 sequence (Q15746 whole entry): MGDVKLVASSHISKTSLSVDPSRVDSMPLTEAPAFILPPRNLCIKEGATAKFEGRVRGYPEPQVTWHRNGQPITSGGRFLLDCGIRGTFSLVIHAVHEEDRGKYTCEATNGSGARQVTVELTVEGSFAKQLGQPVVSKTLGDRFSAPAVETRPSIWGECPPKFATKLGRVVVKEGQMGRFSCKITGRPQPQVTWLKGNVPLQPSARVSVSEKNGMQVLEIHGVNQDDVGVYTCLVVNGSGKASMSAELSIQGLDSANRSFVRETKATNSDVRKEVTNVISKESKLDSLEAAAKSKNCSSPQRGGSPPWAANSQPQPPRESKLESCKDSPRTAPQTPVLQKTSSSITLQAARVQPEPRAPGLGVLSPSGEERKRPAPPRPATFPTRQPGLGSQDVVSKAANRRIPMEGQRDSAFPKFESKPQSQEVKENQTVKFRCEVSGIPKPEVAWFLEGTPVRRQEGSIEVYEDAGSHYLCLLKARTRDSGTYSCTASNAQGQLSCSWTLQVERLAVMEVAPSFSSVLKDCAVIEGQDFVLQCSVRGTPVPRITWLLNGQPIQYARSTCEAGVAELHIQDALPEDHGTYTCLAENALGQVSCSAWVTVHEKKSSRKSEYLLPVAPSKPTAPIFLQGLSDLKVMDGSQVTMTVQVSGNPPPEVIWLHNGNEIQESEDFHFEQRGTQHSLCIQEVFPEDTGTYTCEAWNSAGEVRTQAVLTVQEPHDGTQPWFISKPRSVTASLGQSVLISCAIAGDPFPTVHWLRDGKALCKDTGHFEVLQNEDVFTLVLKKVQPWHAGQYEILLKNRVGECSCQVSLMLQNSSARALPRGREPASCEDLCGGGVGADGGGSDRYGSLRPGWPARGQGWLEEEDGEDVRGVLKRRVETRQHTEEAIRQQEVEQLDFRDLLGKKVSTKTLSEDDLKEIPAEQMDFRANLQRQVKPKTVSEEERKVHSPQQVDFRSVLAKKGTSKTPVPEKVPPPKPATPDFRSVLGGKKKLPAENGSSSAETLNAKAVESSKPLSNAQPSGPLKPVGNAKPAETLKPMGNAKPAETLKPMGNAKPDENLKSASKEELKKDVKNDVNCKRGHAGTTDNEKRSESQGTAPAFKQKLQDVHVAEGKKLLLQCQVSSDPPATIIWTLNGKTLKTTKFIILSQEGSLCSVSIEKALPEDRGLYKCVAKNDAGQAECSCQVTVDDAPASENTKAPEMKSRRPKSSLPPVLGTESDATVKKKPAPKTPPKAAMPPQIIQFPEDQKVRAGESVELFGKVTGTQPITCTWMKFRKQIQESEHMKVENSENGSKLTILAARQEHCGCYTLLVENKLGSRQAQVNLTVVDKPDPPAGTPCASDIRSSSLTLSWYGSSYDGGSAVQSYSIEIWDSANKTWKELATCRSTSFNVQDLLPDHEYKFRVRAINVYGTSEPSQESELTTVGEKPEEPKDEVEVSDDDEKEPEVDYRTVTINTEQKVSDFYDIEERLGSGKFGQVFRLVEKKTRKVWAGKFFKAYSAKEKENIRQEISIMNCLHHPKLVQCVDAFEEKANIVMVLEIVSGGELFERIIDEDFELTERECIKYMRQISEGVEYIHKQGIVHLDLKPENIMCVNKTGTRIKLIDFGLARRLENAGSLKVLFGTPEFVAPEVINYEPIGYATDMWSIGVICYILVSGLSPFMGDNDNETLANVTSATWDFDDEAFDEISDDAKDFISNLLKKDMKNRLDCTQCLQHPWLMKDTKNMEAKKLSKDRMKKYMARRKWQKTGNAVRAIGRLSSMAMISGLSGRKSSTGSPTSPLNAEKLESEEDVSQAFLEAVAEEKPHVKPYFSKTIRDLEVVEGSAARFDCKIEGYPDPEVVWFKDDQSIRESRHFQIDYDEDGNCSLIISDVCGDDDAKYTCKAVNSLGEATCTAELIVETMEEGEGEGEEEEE
The conditions noted are these: MYLK; 1 μM; read-out: % control.

Experiment [6] deals with T6, panel of 468 kinases (Homo sapiens, UniProt Q16659).
T6 construct: purchased KINOMEscan (ScanMAX) service
T6 sequence (Q16659 whole entry): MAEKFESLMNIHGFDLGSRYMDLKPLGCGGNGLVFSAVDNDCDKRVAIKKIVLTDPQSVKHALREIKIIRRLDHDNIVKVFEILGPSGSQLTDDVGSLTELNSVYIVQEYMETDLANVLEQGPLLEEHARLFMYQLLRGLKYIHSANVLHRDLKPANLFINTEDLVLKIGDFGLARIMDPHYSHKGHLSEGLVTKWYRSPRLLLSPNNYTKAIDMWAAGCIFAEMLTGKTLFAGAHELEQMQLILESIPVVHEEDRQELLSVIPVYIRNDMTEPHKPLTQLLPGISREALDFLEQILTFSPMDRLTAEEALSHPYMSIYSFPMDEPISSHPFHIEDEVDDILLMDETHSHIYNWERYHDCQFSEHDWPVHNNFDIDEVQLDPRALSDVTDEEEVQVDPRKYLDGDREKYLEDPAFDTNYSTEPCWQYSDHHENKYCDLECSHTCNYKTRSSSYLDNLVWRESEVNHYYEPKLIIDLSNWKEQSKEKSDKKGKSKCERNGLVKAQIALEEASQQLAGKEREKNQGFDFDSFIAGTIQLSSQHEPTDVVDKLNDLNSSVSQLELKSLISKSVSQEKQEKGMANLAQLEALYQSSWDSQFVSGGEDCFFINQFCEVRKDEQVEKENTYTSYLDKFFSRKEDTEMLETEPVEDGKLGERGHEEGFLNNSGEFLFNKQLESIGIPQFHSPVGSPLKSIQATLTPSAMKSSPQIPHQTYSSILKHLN
As to conditions: ERK3; 1 μM; read-out: % control.

The target in experiment [7] is T7, panel of 468 kinases (Homo sapiens, UniProt Q8IY84).
T7 construct: purchased KINOMEscan (ScanMAX) service
T7 sequence (Q8IY84 whole entry): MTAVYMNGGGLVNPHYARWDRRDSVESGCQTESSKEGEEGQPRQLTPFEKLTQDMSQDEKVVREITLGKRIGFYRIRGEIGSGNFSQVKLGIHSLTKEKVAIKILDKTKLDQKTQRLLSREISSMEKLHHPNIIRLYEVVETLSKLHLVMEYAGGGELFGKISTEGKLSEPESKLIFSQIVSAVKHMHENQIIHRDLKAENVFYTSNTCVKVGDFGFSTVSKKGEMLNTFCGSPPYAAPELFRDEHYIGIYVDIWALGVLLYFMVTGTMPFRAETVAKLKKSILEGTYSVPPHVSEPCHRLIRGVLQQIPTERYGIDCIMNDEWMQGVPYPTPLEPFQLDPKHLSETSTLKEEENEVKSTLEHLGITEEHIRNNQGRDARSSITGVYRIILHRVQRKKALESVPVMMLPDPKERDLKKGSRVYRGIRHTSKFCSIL
As to conditions: NIM1; 1 μM; read-out: % control.

Experiment [8] addresses T8, panel of 468 kinases (Homo sapiens, UniProt Q9UF33).
T8 construct: purchased KINOMEscan (ScanMAX) service
T8 sequence (Q9UF33 23-1036): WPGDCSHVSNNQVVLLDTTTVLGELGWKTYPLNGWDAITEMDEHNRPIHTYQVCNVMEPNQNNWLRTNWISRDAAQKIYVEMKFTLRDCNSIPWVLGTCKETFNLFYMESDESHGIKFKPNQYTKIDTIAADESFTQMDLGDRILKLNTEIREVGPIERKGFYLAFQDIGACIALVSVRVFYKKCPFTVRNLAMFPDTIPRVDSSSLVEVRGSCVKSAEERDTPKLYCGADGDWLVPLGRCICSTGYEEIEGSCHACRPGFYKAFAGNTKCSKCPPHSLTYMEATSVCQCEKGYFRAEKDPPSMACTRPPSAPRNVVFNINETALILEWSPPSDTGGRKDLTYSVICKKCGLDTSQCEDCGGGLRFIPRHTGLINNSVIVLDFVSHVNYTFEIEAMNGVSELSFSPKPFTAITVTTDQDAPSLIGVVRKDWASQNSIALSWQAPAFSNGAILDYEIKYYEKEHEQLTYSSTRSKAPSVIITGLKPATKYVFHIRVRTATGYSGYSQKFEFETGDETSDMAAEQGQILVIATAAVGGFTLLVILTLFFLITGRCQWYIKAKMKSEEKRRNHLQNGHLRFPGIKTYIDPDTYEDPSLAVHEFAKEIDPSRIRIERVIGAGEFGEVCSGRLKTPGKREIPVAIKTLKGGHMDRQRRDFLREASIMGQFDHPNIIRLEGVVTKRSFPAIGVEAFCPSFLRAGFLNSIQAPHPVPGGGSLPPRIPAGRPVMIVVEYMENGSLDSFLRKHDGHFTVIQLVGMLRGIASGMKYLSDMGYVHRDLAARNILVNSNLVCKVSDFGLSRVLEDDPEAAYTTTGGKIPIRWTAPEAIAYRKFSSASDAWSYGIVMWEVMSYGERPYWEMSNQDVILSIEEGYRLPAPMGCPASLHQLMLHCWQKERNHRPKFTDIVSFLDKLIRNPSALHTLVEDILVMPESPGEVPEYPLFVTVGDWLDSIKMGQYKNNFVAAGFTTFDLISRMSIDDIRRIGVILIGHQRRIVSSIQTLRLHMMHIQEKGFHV
The conditions noted are these: EPHA6; 1 μM; read-out: % control.

These results are taken from patent publication US12479847B2 (DANA-FARBER CANCER INSTITUTE, INC., priority 2019, dated 2025).

Like-named read-outs stand apart in the source and are kept apart here.

Take `CNc1nc(Nc2ccc(S(=O)(=O)N3CCC(N4CCOCC4)CC3)cc2OC)nc2[nH]cc(Cl)c12` [Compound 12, 5-chloro-N2-(2-methoxy-4-((4-morpholinopiperidin-1-yl)sulfonyl)phenyl)-N4-methyl-7H-pyrrolo[2,3-d]pyrimidine-2,4-diamine]: the remaining binding at 1 µM is 90% in experiment [1] (TYK2(JH1domain-catalytic)); 88% in experiment [1] (TYK2(JH2domain-pseudokinase)); 72% in experiment [2]; 96% in experiment [3]; 100% in experiment [4]; 8.8% in experiment [5]. The remaining binding at 1 µM in experiment [6] was found to be 100%; in experiment [7], 82%; in experiment [8] it was 100%.
Turning to `CNc1nc(Nc2ccc(C(=O)N3CCC(N4CCOCC4)CC3)c3c2OCO3)nc2[nH]cc(Cl)c12` [Compound 75, (7-((5-chloro-4-(methylamino)-7H-pyrrolo[2,3-d]pyrimidin-2-yl)amino)benzo[d][1,3]dioxol-4-yl)(4-morpholinopiperidin-1-yl)methanone], the remaining binding at 1 µM was found to be 46% in experiment [1] (TYK2(JH1domain-catalytic)); 100% in experiment [1] (TYK2(JH2domain-pseudokinase)); 1.8% in experiment [2]; 97% in experiment [3]; 100% in experiment [4]; 18% in experiment [5]. Further, the results for the remaining binding at 1 µM in experiment [6], in experiment [7] and in experiment [8] were 91%, 73% and 100%, respectively.
Take `CNc1nc(Nc2ccc(P3(=O)CCN(C4CCOCC4)CC3)cc2OC)nc2[nH]cc(Cl)c12` [Compound 77, 4-(4-((5-chloro-4-(methylamino)-7H-pyrrolo[2,3-d]pyrimidin-2-yl)amino)-3-methoxyphenyl)-1-(tetrahydro-2H-pyran-4-yl)-1,4-azaphosphinane 4-oxide]: the remaining binding at 1 µM in experiment [1] (TYK2(JH1domain-catalytic)) came to 66%; in experiment [1] (TYK2(JH2domain-pseudokinase)), 82%; in experiment [2] it was 9.7%; in experiment [3] it was 100%; in experiment [4], 100%; in experiment [5], 0.05%. The results for the remaining binding at 1 µM in experiment [6], in experiment [7] and in experiment [8] were 99%, 88% and 100%, respectively.
